Experimental data from PubChem BioAssay (NCI).
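Five concentrations, 48 hours, 96-well plates. GI50 is the concentration that inhibits growth by half. TGI denotes the concentration required for complete inhibition of growth.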 Where a SMILES comes first, the peptide text is derived from it. Bridges are numbered along the chain shown (N, C = ends). [ ]: non-standard residue; d: D form. The star is where a group is joined. ξ: configuration not given here. ξDab(CH2SO3H) = NC(CCNCS(=O)(=O)O)C(=O)O; Heptanoyl(6-Me) = CC(C)CCCCC(=O)*; Dab = NCC[CH](N)C(=O)O

Legend:
Experiment in all cases: DTP human tumour cell line panel, 48 h
[1] = system: K-562 leukemia
[2] = system: SK-OV-3 ovarian
[3] = system: ACHN renal
[4] = system: SW-620 colon
[5] = system: IGROV1 ovarian
[6] = system: SR leukemia
[7] = system: NCI-H460 lung
[8] = system: HL-60(TB) leukemia
[9] = system: DU-145 prostate
[10] = system: MDA-MB-231 breast

Structure (SMILES)	TGI [1] [µM]	TGI [2] [µM]	TGI [3] [µM]	TGI [4] [µM]	TGI [5] [µM]	TGI [6] [µM]	TGI [7] [µM]	TGI [8] [µM]	GI50 [2] [µM]	GI50 [3] [µM]	GI50 [9] [µM]	TGI [9] [µM]	GI50 [4] [µM]	GI50 [10] [µM]	TGI [10] [µM]	GI50 [5] [µM]	GI50 [6] [µM]	GI50 [7] [µM]	GI50 [8] [µM]	GI50 [1] [µM]
CCC(O)C1Cc2c(C)cc3c(c2O1)C(=O)c1ccccc1C3=O (stereo unspecified)	> 100	89.4	> 100	> 100	> 100	> 100	> 100	51.7												
CCC(C)C1NC(=O)C(CCNCS(=O)(=O)O)NC(=O)C(NC(=O)C(CCNCS(=O)(=O)O)NC(=O)C(NC(=O)C(CCNCS(=O)(=O)O)NC(=O)CCCCC(C)C)C(C)O)CCNC(=O)C(C(C)O)NC(=O)C(CCNCS(=O)(=O)O)NC(=O)C(CCNCS(=O)(=O)O)NC(=O)C(C(C)CC)NC1=O (stereo unspecified) ({Heptanoyl(6-Me)}-[ξDab(CH2SO3H)]T[ξDab(CH2SO3H)][Dab][ξDab(CH2SO3H)]II[ξDab(CH2SO3H)][ξDab(CH2SO3H)]T; lactam 4-C; configuration not given here)		> 25	> 25	> 25	> 25	> 25	22.1	16.9	8.13	> 25	7.09	23.2	4	5.82	> 25	13.1	1.32	6.86	5.23	
CCOC(=O)NC/C=C/COC1CCCCO1 (stereo unspecified)	> 100	> 100	> 100	> 100	> 100	> 100	> 100	> 100												
COc1cc(O)c2c(c1)O[C@@H]1OCC[C@H]21	> 100	> 100	> 100	> 100	> 100	> 100	> 100	> 100												
Cc1ccc(NC(=O)c2cc3ccccc3c(N=Nc3cc(S(=O)(=O)O)ccc3O)c2O)c(C)c1	> 100	> 100	23	> 100	> 100							> 100			> 100					
COc1ccc2c(c1)oc(=O)c1cc(OC)ccc12	> 100	> 100		> 100	> 100		> 100		> 100		> 100	> 100	> 100	> 100	> 100	> 100		> 100		> 100
COc1ccc(NC(=O)CC/C(CC(=O)c2ccco2)=N/NC(N)=S)cc1	> 100	> 100	> 100	> 100	> 100		> 100	> 100												
COc1cccc(/C=N/NC(=O)c2ccccc2N2CCCC2)c1O	> 100	90.6	> 100	> 100	> 100	> 100	52		4.9	2.72	8.96	> 100	4.08	7.31	> 100	7.05	4.2	3.25		5.45
COc1ccc(Sc2nc3cc(N)cc(N)c3nc2-c2ccccc2)cc1	> 100	> 100		> 100			> 100	> 100	32.9		14.5	> 100	26.5	> 100	> 100			20	4.25	9.83
Nc1nc(Cl)cc(NCC(O)CO)n1 (stereo unspecified)	> 100	> 100		> 100	> 100	> 100	> 100	> 100												
COc1cc2c(cc1OC)CC(=O)Nc1cc(OC)c(OC)cc1CC2	> 100	> 100	> 100	> 100	> 100	> 43.7	> 100	64.3												
N#CCCCCCOCCOCCOCCOCCOCCCCCC#N	> 100	> 100	> 100	> 100	> 100	> 100	> 100	> 100												
O=C(c1ccccc1)C(c1ccccc1)C1(O)C(=O)Nc2ccc([N+](=O)[O-])cc21 (stereo unspecified)	> 100	79.7	> 100	> 100	> 100		> 100	> 100												
COc1ccc(Cc2c(=O)[nH]nc3ccccc23)cc1	> 100	> 100	> 100	> 100	> 100		> 100													
Cc1nn2c(nc1=O)sc1ccc3ccccc3c12	> 100	> 100	> 100	> 100	> 100	> 100	> 100	> 100												
CCCCCCCCCCCC(=O)N1CCN(C(C)=O)CC1	59.7	39.7	> 100	46.6	42.5	53.5	38.1		20.7	62.1	35	> 100	25.2	21	38.2	18.8	22	19.8		22.9
CC1(Br)CC2OC3(Br)C=CC(C)(O)C2(CC1=O)C3(C)C (stereo unspecified)	> 29.8	> 100	> 100	> 100	> 100	> 100	> 100													
COC(=O)C1=CO[C@@H](OC2OC(CO)C(O)C(O)C2O)[C@H]2[C@@H](C)[C@@H](O)[C@@H](O)[C@@H]12 (stereo partly specified)		> 100	> 100	> 100	> 100	> 100		> 100				> 100			> 100					
Cc1ccc(-c2cc3c4c(nc5ccccc53)C(=O)c3cccnc3-c4n2)cc1	> 100	> 94.4	80.6	> 51.1	55.4		16.4	> 100	34.7	22.5	11.9	24.5	5.7	16.8	> 69.9	10.7		3.14	1.35	0.39

Structure (SMILES)	TGI [1] [µM]	TGI [2] [µM]	TGI [3] [µM]	TGI [4] [µM]	TGI [5] [µM]	TGI [6] [µM]	TGI [7] [µM]	TGI [8] [µM]	GI50 [2] [µM]	GI50 [3] [µM]	GI50 [9] [µM]	TGI [9] [µM]	GI50 [4] [µM]	GI50 [10] [µM]	TGI [10] [µM]	GI50 [5] [µM]	GI50 [6] [µM]	GI50 [7] [µM]	GI50 [8] [µM]	GI50 [1] [µM]
O=c1[nH]c(=O)c2cc3cc(C4CC(O)C(CO)O4)ccc3cc2[nH]1 (stereo unspecified)	> 100	> 100		> 100	> 100		> 100		> 100		> 100	> 100	> 100	65.7	> 100	1.7		> 100		> 100
O=[N+]([O-])c1cc([N+](=O)[O-])c(/C=C/c2ccc(Cl)c(Cl)c2)cc1/C=C/c1ccc(Cl)c(Cl)c1	78.8	> 100	81.9	88.6	66.8		> 100	49.2												
O=C(OC1CCC2OOC1O2)c1ccc([N+](=O)[O-])cc1 (stereo unspecified)	> 100	> 100	> 100	> 100	> 100	> 100	> 100	> 100												
CCCCNC(=O)C1C(=O)N(CCCC)C(=O)/C1=N\N (stereo unspecified)	> 100	> 100	> 100	> 100	> 100		> 100													
C(=N\Nc1ccccc1)/c1nc2ccccc2nc1/C=N/Nc1ccccc1	20.5	38.6	30.6	30.7	21.5	> 84.7	29	> 100												
COc1cc2c(c(OC)c1OC)-c1ccc(OC)c(=O)cc1[C@@H](NC(C)=O)CC2			> 100	> 394	> 100	> 100						0.0538		7.13	> 100		< 0.01	0.625		
CCOC(=O)C(N=C(c1ccccc1)c1ccccc1)N(C(=O)OC(C)(C)C)C(=O)OC(C)(C)C (stereo unspecified)	> 100	> 100	> 100	> 100	> 100	> 100														
N/C(=N/N=C/c1ccccc1)N/N=C\c1ccccc1	> 100	> 100	> 100	> 100	> 100		> 100	23	6.37	6.4	5.54	92.7	3.86	10.5	> 100	8.6		3.89	3.9	3.35
CC(N)(/C=C/c1ccccc1)C(=O)O (stereo unspecified)	> 100	> 100	> 100	> 100	> 100	> 100	> 100	> 100							> 100					
CCOC(=O)Cc1csc(Nc2ccc(OCC)cc2)n1	> 100		> 100	> 100	> 100	> 100	> 100	> 100												
Cc1cc(Nc2ncc3c(n2)N(C)C(=O)N(c2cc(NC(=O)c4cccc(C(F)(F)F)c4)ccc2C)C3)n(C)n1	> 46.4	0.0701		> 46.4	0.0524	1.21	> 46.4		0.022	0.0281			0.0539	0.0255	0.164	< 0.01	0.0264	0.0832	0.0365	< 0.01
O=c1c2ccccc2nc(/C=C(\O)c2ccncc2)n1-c1ccc(Cl)cc1	> 100	> 100	> 100	> 100		> 100	> 100	> 100												
O=C1[C@@H]2C(c3ccccc3[N+](=O)[O-])=[N+](c3ccccc3)O[C@@H]2C(=O)N1c1ccc(Cc2ccc(N3C(=O)[C@H]4C(c5ccccc5[N+](=O)[O-])=[N+](c5ccccc5)O[C@H]4C3=O)cc2)cc1	> 100	> 100	> 100	> 100	> 100	> 100	> 100	> 100												
[Cl][Hg][c]1ccc(Cl)s1	7.29	26.8	3.33	2.59	3.67		35.7	6.29	13.6	1.78	4.56	17.6	1.04			1.62	0.319	8.9	2.1	0.729
COc1ccc(Cn2cc3c(c2-c2ccccc2)CCc2cnoc2-3)cc1OC	> 100	> 100	> 100	> 100	> 100	> 100	> 100	1.69	1.48	2.83			0.455	2.13	> 100	1.59	0.353	0.457	0.299	0.33
NC1CCCCC1N.O=[Se]([O-])[O-].[Pt+4] (stereo unspecified)	> 49.8	> 100	> 52.4	> 39.9	> 46		5.15	> 28.9	27.8	0.653			0.0901			2.11		0.205	0.315	0.413
CCCCCCCCCCCCSC1=C(Cl)C(=O)C(OC)=C(OC)C1=O	> 40	27.3	18.2	17.5	20.7		11.1	5.82	9.78	1.52	11.2	31.5	0.63	1.86	10.4	6.99		2.15	0.0502	0.205
Nc1nc(N)c(-c2ccccc2)c(C(=O)Nc2ccccc2)n1	> 100	> 100	> 100	> 100	> 100		> 100													
O=C(NCc1cccnc1)C1COc2cc(-c3cc(=O)c4ccccc4o3)ccc2O1 (stereo unspecified)	> 100	> 100	> 72.9	> 100	> 100	> 100	> 100	> 46.4												
